Experimental data reported in patent US6215002A, “Pyrrolopyrrolone derivatives as inhibitors of neutrophil elastase” (priority 1996, dated 2001).
Structures can show the parent of a compound that is named as a salt.

What follows are compounds tested against T1, human neutrophil elastase (Homo sapiens, UniProt P08246) (assay: In vitro assay of human neutrophil elastase (HNE)). Conditions: 118 nM purified human neutrophil elastase, pH 8.6, 15 min incubation at 30° C., MeO-succinyl-alanyl-alanyl-prolyl-valyl-p-nitroanilide substrate; read-out: HNE IC50.
T1 sequence (P08246 30-267): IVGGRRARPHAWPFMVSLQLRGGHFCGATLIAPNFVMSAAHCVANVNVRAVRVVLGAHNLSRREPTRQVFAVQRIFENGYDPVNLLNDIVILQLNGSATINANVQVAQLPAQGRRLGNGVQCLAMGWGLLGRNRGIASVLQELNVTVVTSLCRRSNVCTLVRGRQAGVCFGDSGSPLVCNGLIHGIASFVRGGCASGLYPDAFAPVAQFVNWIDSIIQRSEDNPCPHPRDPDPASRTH
Assay type: biochemical
Summary of the method: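 Residual activity was taken as the 10 min rate of absorbance rise at 405 nm after adding 0.6 mM MeO-succinyl-AAPV-p-nitroanilide. Curve fitting of activity against concentration gave IC50.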

Row | IC50 | Compound
1 | 73 nM | CCC[C@H]1C(=O)N(S(C)(=O)=O)[C@H]2CCN(C(=O)CCCCCCCCCN(C)c3ccccc3)[C@H]12 (relative stereo) [Example 68, rel-(3R,3aR,6aS)-1-Methanesulfonyl-4-[10-methyl-phenyl-amino)decanoyl]-3-propyl-hexahydro-pyrrolo[3,2-b]pyrrol-2-one hydrochloride]
2 | 481 nM | CCC[C@H]1C(=O)N(S(C)(=O)=O)[C@H]2CCN(C(=O)CN3CCCC3)[C@H]12 (relative stereo) [Example 108, hydrochloride]
3 | 52 nM | CCC[C@H]1C(=O)N(S(=O)(=O)c2ccc3ccccc3c2)[C@H]2CCN(S(=O)(=O)Cc3ccccc3)[C@H]12 (relative stereo) [Example 34, rel-(3aR,6R,6aS)-1-(Naphthalene-2-sulfonyl)-4-phenylmethanesulfonyl-3-propyl-hexahydro-pyrrolo[3,2-b]pyrrol-2-one]
4 | 144 nM | CC(C)[C@H]1C(=O)N(S(C)(=O)=O)[C@H]2CCN(C(=O)CCCC3CCNCC3)[C@H]12 (relative stereo) [Example 255, rel-(3R,3aR,6aS)-3-Isopropyl-1-methanesulfonyl-4-(4-piperidin-4-yl-butyryl)-hexahydro-pyrrolo[3,2-b]pyrrol-2-one hydrochloride]
5 | 18 nM | CCC[C@H]1C(=O)N(S(C)(=O)=O)[C@H]2CCN(S(=O)(=O)c3ccccc3N)[C@H]12 (relative stereo) [Example 236, rel-(3R,3aR,6aS)-4-(2-Amino-benzenesulfonyl)-1-methanesulfonyl-3-propyl-hexahydro-pyrrolo[3,2-b]pyrrol-2-one]
6 | 38 nM | CCC[C@H]1C(=O)N(S(=O)(=O)c2ccc([N+](=O)[O-])cc2)[C@H]2CCN(C(=O)CCCCCN3CCCCC3)[C@H]12 (relative stereo) [Example 203, rel-(3R,3aR,6aS)-1-(4-Nitro-benzenesulfonyl)-4-(6-piperidin-1-yl-hexanoyl)-3-propyl-hexahydro-pyrrolo[3,2-b]pyrrol-2-one DL-tartrate]
7 | 138 nM | C=CC[C@H]1C(=O)N(S(=O)(=O)c2cccc(S(=O)(=O)N(C)C)c2)[C@H]2CCN(C(=O)OCc3ccccc3)[C@H]12 (relative stereo) [Example 37, rel-(3aS,6R,6aR)-6-Allyl-4-(3-dimethylsulfamoyl-benzenesulfonyl)-5-oxo-hexahydro-pyrrolo[3,2-b]pyrrole-1-carboxylic acid benzyl ester]
8 | 99 nM | CC(C)[C@H]1C(=O)N(S(C)(=O)=O)[C@H]2CCN(S(=O)(=O)c3ccc(CN4CCCCCC4)cc3)[C@H]12 (relative stereo) [Example 199, rel-(3R,3aR,6aS)-4-(4-Azepin-1-ylmethyl-benzenesulfonyl)-3-isopropyl-1-methanesulfonyl-hexahydro-pyrrolo[3,2-b]pyrrol-2-one hydrochloride]
9 | 68 nM | CCC[C@H]1C(=O)N(S(C)(=O)=O)[C@H]2CCN(S(=O)(=O)c3ccc(CN4CCCCCC4)cc3)[C@H]12 (relative stereo) [Example 195, rel-(3R,3aR,6aS)-4-(4-Azepin-1-ylmethyl-benzenesulfonyl)-1-methanesulfonyl-3-propyl-hexahydro-pyrrolo[3,2-b]pyrrol-2-one hydrochloride]
10 | 12 nM | CCC[C@H]1C(=O)N(S(C)(=O)=O)[C@H]2CCN(S(=O)(=O)c3ccc(OC)cc3)[C@H]12 (relative stereo) [Example 220, rel-(3R,3aR,6aS)-1-Methanesulfonyl-4-(4-methoxy-benzenesulfonyl)-3-propyl hexahydro-pyrrolo[3,2-b]pyrrol-2-one]
11 | 134 nM | CCC[C@H]1C(=O)N(S(C)(=O)=O)[C@H]2CCN(C(=O)CCNC(C)=O)[C@H]12 (relative stereo) [Example 96, rel-N-[3-(4-Methanesulfonyl-5-oxo-6R-propyl-hexahydro-(3aS,6aR)-pyrrolo[3,2-b]pyrrol-1-yl)-3-oxo-propyl]-acetamide]
12 | 22 nM | CCC[C@H]1C(=O)N(S(C)(=O)=O)[C@H]2CCN(C(=O)c3ccc[nH]3)[C@H]12 (relative stereo) [Example 242, rel-(3R,3aR,6aS)-1-Methanesulfonyl-3-propyl-4-(1H-pyrrole-2-carbonyl)-hexahydro-pyrrolo[3,2-b]pyrrol-2-one]
13 | 104 nM | CCC[C@H]1C(=O)N(S(C)(=O)=O)[C@H]2CCN(C(=O)CN(C)c3ccccc3)[C@H]12 (relative stereo) [Example 103, rel-(3R,3aR,6aS)-1-Methanesulfonyl-4-[(methyl-phenyl-amino)-acetyl]-3-propyl-hexahydro-pyrrolo[3,2-b]pyrrol-2-one hydrochloride]
14 | 47 nM | CCC[C@H]1C(=O)N(S(C)(=O)=O)[C@H]2CCN(C(=O)/C=C/C(=O)N3CCN(C)CC3)[C@H]12 (relative stereo) [Example 130, rel-(3R,3aR,6aS)-1-(4-Methanesulfonyl-5-oxo-6-propyl-hexahydro-pyrrolo[3,2-b]pyrrol-1-yl)-4-(4-methyl-piperazin-1-yl)-but-2E-ene-1,4-dione hydrochloride]
15 | 134 nM | CCC[C@H]1C(=O)N(S(C)(=O)=O)[C@H]2CCN(C(=O)CCCCCN(C)C)[C@H]12 (relative stereo) [Example 77, rel-(3R,3aR,6aS)-4-(6-Dimethylamino-hexanoyl)-1-methanesulfonyl-3-propyl-hexahydro-pyrrolo[3,2-b]pyrrol-2-one DL-tartrate]
16 | 23 nM | CCC[C@H]1C(=O)N(S(C)(=O)=O)[C@H]2CCN(C(=O)/C=C/c3ccc(NC(C)=O)cc3)[C@H]12 (relative stereo) [Example 134, rel-N-{4-[3-(4-Methanesulfonyl-5-oxo-6R-propyl-hexahydro-(3aS,6aR)-pyrrolo[3,2-b]pyrrol-1-yl)-3-oxo-(E)-propenyl]-phenyl}acetamide]
17 | 41 nM | CCC[C@H]1C(=O)N(S(C)(=O)=O)[C@H]2CCN(C(=O)CCCCCCCCCN3CCCCC3)[C@H]12 (relative stereo) [Example 70, rel-(3R,3aR,6aS)-1-Methanesulfonyl-4-(10-piperidin-1-yl-decanoyl)-3-propyl-hexahydro-pyrrolo[3,2-b]pyrrol-2-one DL-tartrate]
18 | 10 nM | CCC[C@H]1C(=O)N(S(C)(=O)=O)[C@H]2CCN(S(=O)(=O)c3ccccc3)[C@H]12 (relative stereo) [Example 219, rel-(3R,3aR,6aS)-4-Benzenesulfonyl-1-methanesulfonyl-3-propyl-hexahydro-pyrrolo[3,2-]pyrrol-2-one]
19 | 14 nM | CCC[C@H]1C(=O)N(S(C)(=O)=O)[C@H]2CCN(S(=O)(=O)c3ccc(C(=O)NCCN(C)C)cc3)[C@H]12 (relative stereo) [Example 123, rel-N-(2-Dimethylamino-ethyl)-4-(4-methanesulfonyl-5-oxo-6R-propyl-hexahydro-(3aS,6aR)-pyrrolo[3,2-b]pyrrole-1-sulfonyl)-benzamide hydrochloride]
20 | 103 nM | CC(=O)Nc1ccc(S(=O)(=O)N2CC[C@H]3[C@H]2[C@@H](C(C)C)C(=O)N3S(C)(=O)=O)cc1 (relative stereo) [Example 210, rel-N-[4-(6R-Isopropyl-4-methanesufonyl-5-oxo-hexahydro-(3aS,6aR)-pyrrolo[3,2-b]pyrrole-1-sulfonyl)-phenyl]-acetamide]
21 | 64 nM | CCC[C@H]1C(=O)N(S(C)(=O)=O)[C@H]2CCN(C(=O)CCN(CC)CC)[C@H]12 (relative stereo) [Example 91, rel-(3R,3aR,6aS)-4-(3-Diethylamino-propionyl)-1-methanesulfonyl-3-propyl-hexahydro-pyrrolo-3,2-b]pyrrol-2-one hydrochloride]
22 | 55 nM | CCC[C@H]1C(=O)N(S(=O)(=O)c2cccc3cnccc23)[C@H]2CCN(S(C)(=O)=O)[C@H]12 (relative stereo) [Example 51, rel-(3R,3aR,6aS)-1-(Isoquinoline-5-sulfonyl)-4-methanesulfonyl-3-propyl-hexahydro-pyrrolo[3,2-b]pyrrol-2-one]
23 | 205 nM | CCC[C@H]1C(=O)N(S(=O)(=O)c2ccc3ccccc3c2)[C@H]2CCN(C(=O)CN3CCCCC3)[C@H]12 (relative stereo) [Example 3, rel-(3R,3aR,6aS)-1-(Naphthalene-2-sulfonyl)-4-(2-piperidin-1-yl-acetyl)-3-propyl-hexahydro-pyrrolo[3,2-b]pyrrol-2-one]
24 | 54 nM | CCC[C@H]1C(=O)N(S(C)(=O)=O)[C@H]2CCN(S(=O)(=O)CCCN3CCCCC3)[C@H]12 (relative stereo) [Example 9, rel-(3R,3aR,6aS)-1-Methanesulfonyl-4-(3-piperidin-1-yl-propane-1-sulfonyl)-3-propyl-hexahydro-pyrrolo[3,2-b]pyrrol-2-one]
25 | 70 nM | CCC[C@H]1C(=O)N(S(C)(=O)=O)[C@H]2CCN(C(=O)CCN3C(C)CCCC3C)[C@H]12 (relative stereo) [Example 92, rel-(3R,3aR,6aS)-4-[3-(2,6-Dimethyl-piperidin-1-yl)-propionyl]-1-methanesulfonyl-3-propyl-hexahydro-pyrrolo[3,2-b]pyrrol-2-one hydrochloride]
26 | 87 nM | CCC[C@H]1C(=O)N(S(C)(=O)=O)[C@H]2CCN(C(=O)CCCCCN3CCC3)[C@H]12 (relative stereo) [Example 78, rel-(3R,3aR,6aS)-4-(6-Azetidin-1-yl-hexanoyl)-1-methanesulfonyl-3-propyl-hexahydro-pyrrolo[3,2-b]pyrrol-2-one DL-tartrate]

Row | Compound | IC50
27 | CCCCOc1ccc(C(=O)N2CC[C@H]3[C@H]2[C@@H](CCC)C(=O)N3S(C)(=O)=O)cc1 (relative stereo) [Example 239, rel-(3R,3aR,6aS)-4-(4-Butoxy-benzoyl)-1-methanesulfonyl-3-propyl-hexahydro-pyrrolo[3,2-b]pyrrol-2-one] | 18 nM
